Key:
[1] = molecular target: T1, IDO1 (Homo sapiens, UniProt P14902); assay: Hela cell-based functional assay of IDO1 inhibition (kynurenine read at 480 nm); conditions: Hela cells, 100 ng/mL human IFN-γ, 18 h; averages ±SD of two parallel experiments
T1 construct: host or cells: HeLa cells stimulated with 100 ng/mL human IFN-γ
Method: Based on a comprehensive review of the literature, we employed a Hela cell-based functional assay to investigate the IDO1 inhibition activities of the designed compounds.
To assess the inhibitory effect of the designed compounds against IDO1, Hela cells were seeded at 50,000–60,000 cells per well in 100 μL of complete Dulbecco’s modified eagle medium growth medium in a 96-well plate and incubated for 12–18 h. On the second day, diluted inhibitor at a final concentration of 100 ng/mL human IFN-γ was added (100 μL per well) and incubated at 37°C with 5% CO2 for 18 h. On the third day, 140 μL of medium was transferred into a new 96-well plate, and the protein was precipitated with 10 μL of 6.1 N trichloroacetic acid (CCl3COOH) at 50°C for 30 min. The plate was then centrifuged at 2,500 rpm for 10 min, and 100 μL of supernatant was transferred to another 96-well plate and mixed with 100 μL of 2% (w/v) p-dimethylaminobenzaldehyde in CH3COOH. The plate was incubated at 25°C for 10 min, and the yellow color derived from kynurenine was measured at 480 nm using a microplate reader (PE, United States). Inhibition curves with IC50 values were generated using Prism 6.0.

[2] = tested on: pancreatic cancer cells; design: method as in Khanet al.; conditions: ref Khanet al.; cited from earlier work
[3] = tested on: laryngeal squamous carcinoma cells; design: method as in Khanet al.; conditions: ref Khanet al.; cited from earlier work
[4] = tested on: Staphylococcus aureus; design: method as in Babu et al., 2015; conditions: ref Babu et al., 2015; cited from earlier work
[5] = tested on: melanin-concentrating hormone; design: method as in McBriar et al., 2006; conditions: melanin-concentrating hormone antagonist; ref McBriar et al., 2006; cited from earlier work
[6] = tested on: HIV-1 protease; design: method as in The Lipton laboratory; conditions: ref The Lipton laboratory; cited from earlier work

T1 sequence (P14902 whole entry): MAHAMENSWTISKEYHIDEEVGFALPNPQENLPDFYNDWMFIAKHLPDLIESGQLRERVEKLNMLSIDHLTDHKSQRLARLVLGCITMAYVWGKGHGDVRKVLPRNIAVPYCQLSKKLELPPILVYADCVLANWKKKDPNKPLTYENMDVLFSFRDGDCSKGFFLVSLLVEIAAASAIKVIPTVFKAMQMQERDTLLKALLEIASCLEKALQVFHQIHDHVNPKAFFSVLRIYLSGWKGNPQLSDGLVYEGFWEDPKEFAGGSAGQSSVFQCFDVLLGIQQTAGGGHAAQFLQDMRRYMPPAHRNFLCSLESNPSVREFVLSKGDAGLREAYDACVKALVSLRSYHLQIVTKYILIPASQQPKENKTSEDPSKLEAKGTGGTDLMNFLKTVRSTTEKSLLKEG

| Structure (SMILES) | IC50 [1] [µM] | other results |
| --- | --- | --- |
| Cc1ccc(-c2csc3nnc(SCC(=O)Nc4ccc5c(c4)OCO5)n23)cc1 [Amg-1, reference compound] | 3.97 |  |
| CNc1ccccc1C(=O)NC(=O)Nc1ccc(Oc2ncc(Br)cn2)c(C)c1 [Compound 9] |  | repression of pancreatic cancer cells [2]: effectively repress; repression of laryngeal squamous carcinoma cells [3]: effectively repress |
| CC(C)(NC(=O)Nc1ccc(Br)cc1)c1cn(Cc2cccc(Br)c2)nn1 [Compound 3j, 1-(2-(1-(3-bromobenzyl)-1H-1,2,3-triazol-4-yl)propan-2-yl)-3-(4-bromophenyl)urea] | > 20 |  |
| O=C(NCc1cn(Cc2ccccc2Br)nn1)Nc1ccc(Br)cc1 [Compound 3d, 1-((1-(2-bromobenzyl) -1H-1,2,3-triazol-4-yl)methyl) -3-(4-bromophenyl) urea] | > 20 |  |
| COc1ccc(NC(=O)NC(C)(C)c2cn(Cc3ccccc3Br)nn2)cc1 [Compound 3f, 1-(2-(1-(2-bromobenzyl)-1H-1,2,3-triazol-4-yl)propan-2-yl)-3-(4-methoxyphenyl)urea] | 17.9 ± 3.14 |  |
| CC(C)(NC(=O)Nc1ccc(Br)cc1)c1cn(Cc2ccccc2Br)nn1 [Compound 3i, 1-(2-(1-(2-bromobenzyl)-1H-1,2,3-triazol-4-yl)propan-2-yl)-3-(4-bromophenyl)urea] | > 20 |  |
| O=C(NCc1cn(Cc2cccc(Br)c2)nn1)Nc1ccc(Br)cc1 [Compound 3e, 1-((1-(3-bromobenzyl) -1H-1,2,3-triazol-4-yl)methyl) -3-(4-bromophenyl) urea] | > 20 |  |
| O=C(Nc1ccc(F)c(C(F)(F)F)c1)N1CCN(c2ncc3cc(-c4cccnc4F)ccc3n2)CC1 [Compound 8] |  | inhibitory effect on the proliferation of Staphylococcus aureus [4]: excellent inhibitory effect |
| COc1ccc(NC(=O)NC(C)(C)c2cn(Cc3cccc(OC)c3)nn2)cc1 [Compound 3h, 1-(2-(1-(3-methoxybenzyl)-1H-1,2,3-triazol-4-yl)propan-2-yl)-3-(4-methoxyphenyl)urea] | 5.82 ± 2.65 |  |
| COc1ccc(NC(=O)NC(C)(C)c2cn(Cc3cccc(Br)c3)nn2)cc1 [Compound 3g, 1-(2-(1-(3-bromobenzyl)-1H-1,2,3-triazol-4-yl)propan-2-yl)-3-(4-methoxyphenyl)urea] | 1.73 ± 0.97 |  |
| CN1CCN(CCCN(C(=O)Nc2ccc(F)c(C(F)(F)F)c2)[C@@H]2CC[C@]3(c4ccc(C#N)cc4)C[C@H]23)CC1 [Compound 7] |  | effect on body weight [5]: effective in reducing body weight |
| COC(=O)C(NC(=O)C(NC(=O)C(Cc1ccccc1)NC(=O)NC(Cc1ccccc1)NC(=O)C(C)NC(=O)C(C)N)C(C)C)C(C)C (centres unmarked) [Compound 10] |  | inhibitory effect on HIV-1 protease [6]: moderate inhibitory effect |
| COc1ccc(NC(=O)NCc2cn(Cc3ccccc3Br)nn2)cc1 [Compound 3a, 1-((1-(2-bromobenzyl) -1H-1,2,3-triazol-4-yl)methyl) -3-(4-methoxyphenyl) urea] | > 20 |  |
